Results: PubChem BioAssay (NCI)
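A five-concentration, 48-hour dose response in 96-well plates underlies each endpoint, interpolated linearly between surrounding concentrations. Abbreviation: GI50, concentration required for 50% inhibition of growth. The concentration for full growth arrest is given as TGI.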

Columns and labels:
Experiment in all cases: NCI anticancer screen, dose series, 48 h
A498 renal = test system: A498 renal
HL-60(TB) leukemia = test system: HL-60(TB) leukemia
HOP-92 NSCLC = test system: HOP-92 NSCLC
MALME-3M melanoma = test system: MALME-3M melanoma
SF-268 CNS = test system: SF-268 CNS
SF-539 CNS = test system: SF-539 CNS
SNB-19 CNS = test system: SNB-19 CNS
A549 NSCLC = test system: A549 NSCLC
LOX IMVI melanoma = test system: LOX IMVI melanoma
RPMI-8226 leukemia = test system: RPMI-8226 leukemia

Row | SMILES | TGI (A498 renal) | TGI (HL-60(TB) leukemia) | TGI (HOP-92 NSCLC) | TGI (MALME-3M melanoma) | TGI (SF-268 CNS) | TGI (SF-539 CNS) | TGI (SNB-19 CNS) | TGI (A549 NSCLC) | TGI (LOX IMVI melanoma) | GI50 (A498 renal) | GI50 (HL-60(TB) leukemia) | GI50 (LOX IMVI melanoma) | GI50 (RPMI-8226 leukemia) | TGI (RPMI-8226 leukemia) | GI50 (SF-268 CNS) | GI50 (SF-539 CNS) | GI50 (SNB-19 CNS) | GI50 (A549 NSCLC) | GI50 (HOP-92 NSCLC) | GI50 (MALME-3M melanoma)
1 | COC(OC)c1cc2c(cc1C(=O)[C@@]13CCC[C@@H]1NC(=O)O3)OCO2 | > 100 µM | > 100 µM | > 100 µM | > 100 µM | > 100 µM | > 100 µM | > 100 µM | – | – | – | – | – | – | – | – | – | – | – | – | –
2 | N=C1C=C(N)C(=O)c2[nH]c(=O)ccc21 | 6.52 µM | 4.87 µM | 3.58 µM | 6.19 µM | 3.59 µM | 3.73 µM | 3.86 µM | 4.99 µM | 3.69 µM | – | – | – | – | – | – | – | – | – | – | –
3 | OCNCCNc1nc2ccccc2c2[nH]c3ccccc3c12 | 4.46 µM | 3.93 µM | – | – | 6.44 µM | 0.863 µM | 11.7 µM | – | 1.39 µM | 1.55 µM | 1.31 µM | 0.441 µM | 0.84 µM | 2.01 µM | 1.36 µM | 0.189 µM | 2.1 µM | – | – | –
4 | CCSC(SCC)=C1C(=O)N(c2ccccc2)N=C1C | 28.8 µM | 7.35 µM | 20.1 µM | 28.3 µM | 29.1 µM | – | 62.8 µM | 35.1 µM | 26.4 µM | – | – | – | – | 27 µM | – | – | – | – | – | –
5 | CCCCCCCCCCCCCCCCOC(=O)c1cc(O)cc(C(=O)OCCCCCCCCCCCCCCCC)c1 | > 100 µM | > 100 µM | > 100 µM | > 100 µM | > 100 µM | – | > 100 µM | > 100 µM | > 100 µM | – | – | – | – | > 100 µM | – | – | – | – | – | –
6 | COc1cc(NC(=O)Nc2cnc(Nc3ccc(N4CCOCC4)cc3)nc2Oc2cccc(OC)c2)cc(OC)c1 | 2.97 µM | > 50 µM | 3.51 µM | 3.82 µM | 12.3 µM | 1.75 µM | > 50 µM | 6.47 µM | 5.59 µM | 1.3 µM | 2.76 µM | 1.47 µM | – | – | 2.07 µM | 0.884 µM | 5.73 µM | 1.99 µM | 1.14 µM | 1.28 µM
7 | COc1cc2c(c(OC)c1OC)-c1ccc(SC)c(=O)cc1[C@@H](NC(=O)c1ccc(Cl)cc1)CC2 | < 0.01 µM | < 0.01 µM | – | 5.03 µM | > 100 µM | < 0.01 µM | 11.1 µM | > 100 µM | 14.1 µM | – | – | – | – | 95.3 µM | – | – | – | – | – | –
8 | CSC1=NCC2(S1)c1ccccc1N(C(=O)OC(C)(C)C)C2N1CCCCC1 (stereo unspecified) | > 100 µM | > 100 µM | > 100 µM | > 100 µM | > 100 µM | > 100 µM | – | > 100 µM | – | > 100 µM | 63.7 µM | – | > 100 µM | > 100 µM | 74.4 µM | > 100 µM | – | > 100 µM | 51.5 µM | 15.3 µM
9 | CN1CCN(c2nc(-c3ccncc3)nc3sc4c(c23)CCCCCC4)CC1 | 7.56 µM | 29.8 µM | 5.32 µM | – | 20.7 µM | 21 µM | – | 25.3 µM | 20.5 µM | 1.06 µM | 12.6 µM | 8.23 µM | 8.39 µM | 26.9 µM | 5.34 µM | 8.32 µM | – | 11.4 µM | 0.654 µM | –
10 | COC(=O)CC(C(C(C)=O)C(=O)OCc1ccccc1)N1C(=O)OCC1c1ccccc1 (stereo unspecified) | > 100 µM | > 100 µM | – | > 100 µM | > 100 µM | > 100 µM | > 100 µM | > 100 µM | > 100 µM | – | – | – | – | > 100 µM | – | – | – | – | – | –
